Starred links: 1 amine or outer side, 2 acyl side, 3 side chain; linkers in the order of their positions; H or OH if unused. Positions of bridges follow the written chain, without caps; N, C: chain ends. Non-standard residues stand in square brackets, D forms with d. Residues, ends and D or L forms follow the SMILES beside them. *: point of attachment. hPhe(3,5-F2-4-CF3) = N[C@@H](CCc1cc(F)c(C(F)(F)F)c(F)c1)C(=O)O; hPhe(3-Cl-4-CF3) = N[C@@H](CCc1ccc(C(F)(F)F)c(Cl)c1)C(=O)O; NMePhe(4-CF3) = CN[C@@H](Cc1ccc(C(F)(F)F)cc1)C(=O)O; NEtPhe(4-Me) = CCN[C@@H](Cc1ccc(C)cc1)C(=O)O; NMePhe(4-Cl) = CN[C@@H](Cc1ccc(Cl)cc1)C(=O)O; NMePhe(4-Me) = CN[C@@H](Cc1ccc(C)cc1)C(=O)O; NMedβ3hAla = C[C@H](CC(=O)[*:2])N(C)[*:1]; X32 = O=C(CN(CCN1CCC(F)(F)CC1)[*:1])[*:2]; NMeGly(cPent) = CN[C@H](C(=O)O)C1CCCC1; Phe(3-I) = N[C@@H](Cc1cccc(I)c1)C(=O)O; Pro(4,4-F2) = O=C(O)[C@@H]1CC(F)(F)CN1; Ala(cPent) = N[C@@H](CC1CCCC1)C(=O)O; Phe(2-F) = N[C@@H](Cc1ccccc1F)C(=O)O; NMeCha = CN[C@@H](CC1CCCCC1)C(=O)O; hhPhe = N[C@@H](CCCc1ccccc1)C(=O)O; Hyp = O=C(O)[C@@H]1C[C@@H](O)CN1; NMeChg = CN[C@H](C(=O)O)C1CCCCC1; NMeF = CN[C@@H](Cc1ccccc1)C(=O)O; NMeI = CC[C@H](C)[C@H](NC)C(=O)O; NMeD = CN[C@@H](CC(=O)O)C(=O)O; NMeL = CN[C@@H](CC(C)C)C(=O)O; NMeV = CN[C@H](C(=O)O)C(C)C; d(β3hA) = C[C@@H](N)CC(=O)O; NMeS = CN[C@@H](CO)C(=O)O; NMeA = CN[C@@H](C)C(=O)O; NMeAib = CNC(C)(C)C(=O)O; Piperidide = C1CCN(*)CC1; Ac5c = NC1(C(=O)O)CCCC1; Aze = O=C(O)[C@@H]1CCN1; Ac4c = NC1(C(=O)O)CCC1; Sar = CNCC(=O)O

Results on nine compounds are retold here after US12371454B2, “Cyclic peptide compound having Kras inhibitory action” (priority 2019, dated 2025).

T1 sequence (P01116 1-188 isoform P01116-2 G12D): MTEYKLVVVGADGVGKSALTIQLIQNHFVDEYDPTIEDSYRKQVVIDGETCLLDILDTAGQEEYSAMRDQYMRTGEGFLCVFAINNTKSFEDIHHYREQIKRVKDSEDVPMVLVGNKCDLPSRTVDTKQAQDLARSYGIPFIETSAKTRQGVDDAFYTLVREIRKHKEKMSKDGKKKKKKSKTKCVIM

The experiment has as its target T1, Kras and SOS1 (biotin-tagged human Kras loaded with GDP, His-tagged human SOS1) (Homo sapiens, UniProt P01116, G12D).
T1 construct: made in house; host or cells: E. coli (stated for Kras only)
The experiment in a line: Protein-protein interaction inhibition between Kras and SOS1 (KrasGl2D-SOS PPI) using AlphaScreen. Particulars: AlphaScreen; biotin-tagged human Kras loaded with GDP, His-tagged human SOS1; read-out: KRAS G12D-SOS PPI IC50. Type of experiment: binding. In outline:
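AlphaScreen format: Ni donor beads capture His-SOS1, streptavidin acceptor beads capture biotinylated Kras (E. coli-expressed, GDP-loaded post-purification). Excite 680 nm, read 520-620 nm.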
As usually defined, the IC50 is the concentration that inhibits the measured activity by half. For the compound `CCO[C@@H]1C[C@H]2C(=O)NC3(CCC3)C(=O)N(C)[C@@H]([C@@H](C)CC)C(=O)N(C)[C@H](C)CC(=O)N(C)[C@@H](CC(C)C)C(=O)N[C@@H]([C@@H](C)CC)C(=O)N(C)[C@@H](C)C(=O)N3CC[C@H]3C(=O)N(CC)[C@@H](Cc3ccc(C)cc3)C(=O)N(C)CC(=O)N[C@@H](CCc3ccc(C(F)(F)F)c(Cl)c3)C(=O)N2C1` [Compound 626] (cyclo([Ac4c][NMeI][NMedβ3hAla][NMeL]I[NMeA][Aze][NEtPhe(4-Me)][Sar][hPhe(3-Cl-4-CF3)][Hyp](Et))), the IC50 came to 2.4 nM.

In the case of `CC(C)C[C@H]1C(=O)N[C@@H](CC2CCCC2)C(=O)N(C)CC(=O)N(C)CC(=O)N(C)[C@@H](CC2CCCCC2)C(=O)N(C)CC(=O)N[C@@H](CCc2ccc(C(F)(F)F)c(Cl)c2)C(=O)N2CCC[C@H]2C(=O)NC2(CCCC2)C(=O)N(C)[C@@H](C(C)C)C(=O)N(C)[C@H](C(=O)N2CCCCC2)CC(=O)N1C` [Compound 627] ([NMeL][Ala(cPent)][Sar][Sar][NMeCha][Sar][hPhe(3-Cl-4-CF3)]P[Ac5c][NMeV][NMeD]-Piperidide; lactam N-11), the 50% inhibitory concentration (IC50) came to 13 nM.

On to `CC[C@H](C)[C@@H]1NC(=O)[C@H](CC(C)C)N(C)C(=O)C[C@@H](C)N(C)C(=O)[C@H](C2CCCC2)N(C)C(=O)C2(CCCC2)NC(=O)[C@@H]2CC(F)(F)CN2C(=O)[C@H](CCc2cc(F)c(C(F)(F)F)c(F)c2)NC(=O)CN(C)C(=O)[C@H](CC2CCCCC2)N(C)C(=O)[C@@H]2CCN2C(=O)[C@H](C)N(C)C1=O` [Compound 628] (cyclo([Ac5c][NMeGly(cPent)][NMedβ3hAla][NMeL]I[NMeA][Aze][NMeCha][Sar][hPhe(3,5-F2-4-CF3)][Pro(4,4-F2)])), for which the half-maximal inhibitory concentration (IC50) stood at 20 nM.

For `CC[C@H](C)[C@@H]1NC(=O)[C@H](CC(C)C)N(C)C(=O)C[C@@H](C(=O)N2CCCCC2)N(C)C(=O)[C@H]([C@@H](C)CC)N(C)C(=O)C2(CCCC2)NC(=O)[C@@H]2CCCN2C(=O)[C@H](CCc2ccc(C(F)(F)F)c(Cl)c2)NC(=O)CN(C)C(=O)[C@H](Cc2ccc(C(F)(F)F)cc2)N(C)C(=O)[C@@H]2CCN2C(=O)[C@H](C)N(C)C1=O` [Compound 630] ([NMeL]I[NMeA][Aze][NMePhe(4-CF3)][Sar][hPhe(3-Cl-4-CF3)]P[Ac5c][NMeI][NMeD]-Piperidide; lactam N-11), the IC50 was determined as 1.7 nM. With `CC[C@H](C)[C@@H]1NC(=O)[C@H](C)N(C)C(=O)C[C@@H](C(=O)N2CCCCC2)N(C)C(=O)[C@H](C2CCCCC2)N(C)C(=O)C2(CCCC2)NC(=O)[C@@H]2CCCN2C(=O)[C@H](CCCc2ccccc2)NC(=O)CN(C)C(=O)[C@H](CC2CCCCC2)N(C)C(=O)CN(C)C(=O)CN(C)C1=O` [Compound 633] ([NMeA]I[Sar][Sar][NMeCha][Sar][hhPhe]P[Ac5c][NMeChg][NMeD]-Piperidide; lactam N-11) the figure was 120 nM; with `CC[C@H](C)[C@@H]1NC(=O)[C@H](CC(C)C)N(C)C(=O)C[C@@H](C)NC(=O)[C@H](C(C)C)N(C)C(=O)C2(CCCC2)NC(=O)[C@@H]2CCCN2C(=O)[C@H](CCc2ccc(C(F)(F)F)c(Cl)c2)NC(=O)CN(C)C(=O)[C@H](CC2CCCCC2)N(C)C(=O)CN(C)C(=O)CN(CCN2CCC(F)(F)CC2)C1=O` [Compound 635] (cyclo([Ac5c][NMeV][d(β3hA)][NMeL]I[X32][Sar][NMeCha][Sar][hPhe(3-Cl-4-CF3)]P)), 190 nM. Consider `CC[C@H](C)[C@@H]1NC(=O)[C@H](COC)N(C)C(=O)C[C@@H](C(=O)N2CCCCC2)N(C)C(=O)[C@H](C(C)C)N(C)C(=O)C2(CCCC2)NC(=O)[C@@H]2CCCN2C(=O)[C@H](CCc2ccc(C(F)(F)F)c(Cl)c2)NC(=O)CN(C)C(=O)[C@H](CC2CCCCC2)N(C)C(=O)[C@@H]2CCN2C(=O)[C@H](C)N(C)C1=O` [Compound 636] ([NMeS](Me)I[NMeA][Aze][NMeCha][Sar][hPhe(3-Cl-4-CF3)]P[Ac5c][NMeV][NMeD]-Piperidide; lactam N-11), for which the IC50 is 1.1 nM. As to `CC[C@H](C)[C@@H]1NC(=O)[C@H](C)N(C)C(=O)C[C@@H](C(=O)N2CCCCC2)NC(=O)[C@H](CC(C)C)N(C)C(=O)[C@H](Cc2ccccc2)N(C)C(=O)[C@H](CC(C)C)NC(=O)[C@H](Cc2cccc(I)c2)NC(=O)CN(C)C(=O)[C@H](Cc2ccc(Cl)cc2)N(C)C(=O)CN(C)C(=O)CN(C)C1=O` [Compound 637] ([NMeA]I[Sar][Sar][NMePhe(4-Cl)][Sar][Phe(3-I)]L[NMeF][NMeL]D-Piperidide; lactam N-11), the half-inhibitory concentration (IC50) is 26 nM. With `CC[C@H](C)[C@@H]1NC(=O)[C@H](CC(C)C)N(C)C(=O)C[C@@H](C(=O)N2CCCCC2)N(C)C(=O)[C@H](CC(C)C)NC(=O)C(C)(C)N(C)C(=O)[C@H](Cc2ccccc2F)NC(=O)[C@H](Cc2cccc(I)c2)NC(=O)CN(C)C(=O)[C@H](Cc2ccc(C)cc2)N(C)C(=O)[C@@H]2CCN2C(=O)CN(C)C1=O` [Compound 638] ([NMeL]I[Sar][Aze][NMePhe(4-Me)][Sar][Phe(3-I)][Phe(2-F)][NMeAib]L[NMeD]-Piperidide; lactam N-11) the figure was 45 nM.
